Experimental data published in ChEMBL document CHEMBL1240460, “Design, synthesis and antifungal activity of isosteric analogues of benzoheterocyclic N-myristoyltransferase inhibitors” (2010).
Converted amounts (≈) assume the structure as drawn.

What was measured:
Assay type in all cases: functional
[1] = test system: Nannizzia gypsea; assay: Antifungal activity against Microsporum gypseum by serial dilution method
[2] = test system: Cryptococcus neoformans; assay: Antifungal activity against Cryptococcus neoformans by serial dilution method
[3] = test system: Trichophyton rubrum; assay: Antifungal activity against Trichophyton rubrum by serial dilution method
[4] = test system: Aspergillus fumigatus; assay: Antifungal activity against Aspergillus fumigatus by serial dilution method
[5] = test system: Candida albicans; assay: Antifungal activity against Candida albicans by serial dilution method
[6] = test system: Candida tropicalis; assay: Antifungal activity against Candida tropicalis by serial dilution method
[7] = test system: Candida parapsilosis; assay: Antifungal activity against Candida parapsilosis by serial dilution method; settings: Lodderomyces parapsilosis

| Structure (SMILES) | MIC80 [1] | MIC80 [2] | MIC80 [3] | MIC80 [4] | MIC80 [5] | MIC80 [6] | MIC80 [7] |
| --- | --- | --- | --- | --- | --- | --- | --- |
| Fc1ccc(OCc2cc3c(OCCCNCc4cccnc4)cccc3[nH]2)cc1 | 32 µg/mL (≈ 78.9 µM) | 128 µg/mL (≈ 316 µM) | 128 µg/mL (≈ 316 µM) | > 128 µg/mL | > 128 µg/mL | – | – |
| c1ccc(SCc2cc3c(OCCCNCc4cccnc4)cccc3[nH]2)cc1 | 8 µg/mL (≈ 19.8 µM) | 64 µg/mL (≈ 159 µM) | 64 µg/mL (≈ 159 µM) | > 128 µg/mL | 128 µg/mL (≈ 317 µM) | – | – |
| Clc1cccc(Cl)c1SCc1cc2c(OCCCNCc3cccnc3)cccc2[nH]1 | 4 µg/mL (≈ 8.47 µM) | 64 µg/mL (≈ 135 µM) | 16 µg/mL (≈ 33.9 µM) | > 128 µg/mL | 64 µg/mL (≈ 135 µM) | – | – |
| O=C(Nc1cccc(F)c1)c1cc2c(OCCCNCc3cccnc3)cccc2[nH]1 | 32 µg/mL (≈ 76.5 µM) | 128 µg/mL (≈ 306 µM) | 64 µg/mL (≈ 153 µM) | > 128 µg/mL | 128 µg/mL (≈ 306 µM) | – | – |
| O=C(Nc1ccc(Cl)cc1)c1cc2c(OCCCNCc3cccnc3)cccc2[nH]1 | 32 µg/mL (≈ 73.6 µM) | > 128 µg/mL | 128 µg/mL (≈ 294 µM) | > 128 µg/mL | > 128 µg/mL | – | – |
| O=C(Nc1ccccc1)c1cc2c(OCCCNCc3cccnc3)cccc2[nH]1 | 32 µg/mL (≈ 79.9 µM) | > 128 µg/mL | 64 µg/mL (≈ 160 µM) | > 128 µg/mL | > 128 µg/mL | – | – |
| O=C(Nc1ccc(F)c(F)c1)c1cc2c(OCCCNCc3cccnc3)cccc2[nH]1 | 16 µg/mL (≈ 36.7 µM) | 128 µg/mL (≈ 293 µM) | 32 µg/mL (≈ 73.3 µM) | > 128 µg/mL | > 128 µg/mL | – | – |
| O=C(Nc1ccccc1Cl)c1cc2c(OCCCNCc3cccnc3)cccc2[nH]1 | 2 µg/mL (≈ 4.6 µM) | > 128 µg/mL | 128 µg/mL (≈ 294 µM) | > 128 µg/mL | > 128 µg/mL | – | – |
| Fc1ccccc1OCc1nc2c(OCCCNCc3cccnc3)cccc2o1 | – | 16 µg/mL (≈ 39.3 µM) | – | > 64 µg/mL | 4 µg/mL (≈ 9.82 µM) | 0.0625 µg/mL (≈ 0.153 µM) | 1 µg/mL (≈ 2.45 µM) |
| Fc1ccc(OCc2nc3c(OCCCNCc4cccnc4)cccc3o2)cc1 | – | 16 µg/mL (≈ 39.3 µM) | – | > 64 µg/mL | 16 µg/mL (≈ 39.3 µM) | 1 µg/mL (≈ 2.45 µM) | 1 µg/mL (≈ 2.45 µM) |
| c1ccc(OCc2nc3c(OCCCNCc4cccnc4)cccc3o2)cc1 | – | 64 µg/mL (≈ 164 µM) | – | > 64 µg/mL | 16 µg/mL (≈ 41.1 µM) | 0.25 µg/mL (≈ 0.642 µM) | 1 µg/mL (≈ 2.57 µM) |
| Fc1ccc(OCc2nc3c(OCCCNCc4cccnc4)cccc3o2)c(F)c1 | – | 16 µg/mL (≈ 37.6 µM) | – | > 64 µg/mL | 1 µg/mL (≈ 2.35 µM) | 1 µg/mL (≈ 2.35 µM) | 0.25 µg/mL (≈ 0.588 µM) |
| Fc1cccc(F)c1OCc1nc2c(OCCCNCc3cccnc3)cccc2o1 | – | 64 µg/mL (≈ 150 µM) | – | > 64 µg/mL | 64 µg/mL (≈ 150 µM) | 1 µg/mL (≈ 2.35 µM) | 4 µg/mL (≈ 9.4 µM) |
| Fc1ccc(OCc2nc3c(OCCCNCc4cccnc4)cccc3o2)c(F)c1F | – | 64 µg/mL (≈ 144 µM) | – | > 64 µg/mL | 0.25 µg/mL (≈ 0.564 µM) | 0.25 µg/mL (≈ 0.564 µM) | 0.25 µg/mL (≈ 0.564 µM) |
| Fc1cc(F)c(OCc2nc3c(OCCCNCc4cccnc4)cccc3o2)c(F)c1 | – | 16 µg/mL (≈ 36.1 µM) | – | 64 µg/mL (≈ 144 µM) | 16 µg/mL (≈ 36.1 µM) | 1 µg/mL (≈ 2.26 µM) | 1 µg/mL (≈ 2.26 µM) |
| O=[N+]([O-])c1cccc(OCc2nc3c(OCCCNCc4cccnc4)cccc3o2)c1 | – | > 64 µg/mL | – | > 64 µg/mL | > 64 µg/mL | 0.25 µg/mL (≈ 0.575 µM) | 4 µg/mL (≈ 9.21 µM) |
| CCOC(=O)c1cc2c(OCCCNCc3cccnc3)cccc2[nH]1 | 32 µg/mL (≈ 90.5 µM) | > 128 µg/mL | 64 µg/mL (≈ 181 µM) | > 128 µg/mL | > 128 µg/mL | – | – |
| Fc1ccc(OCc2cc3c(OCCCNCc4cccnc4)cccc3[nH]2)c(F)c1 | 8 µg/mL (≈ 18.9 µM) | 64 µg/mL (≈ 151 µM) | 32 µg/mL (≈ 75.6 µM) | > 128 µg/mL | > 128 µg/mL | – | – |
| CCOC(=O)c1oc2cccc(OCCCNCc3cccnc3)c2c1C | 4 µg/mL (≈ 10.9 µM) | 64 µg/mL (≈ 174 µM) | 4 µg/mL (≈ 10.9 µM) | > 64 µg/mL | 1 µg/mL (≈ 2.71 µM) | 1 µg/mL (≈ 2.71 µM) | 4 µg/mL (≈ 10.9 µM) |
| Cc1c(COc2ccc(F)c(F)c2F)oc2cccc(OCCCNCc3cccnc3)c12 | 2 µg/mL (≈ 4.38 µM) | 0.5 µg/mL (≈ 1.1 µM) | 1 µg/mL (≈ 2.19 µM) | 16 µg/mL (≈ 35.1 µM) | 0.125 µg/mL (≈ 0.274 µM) | 0.125 µg/mL (≈ 0.274 µM) | 0.0625 µg/mL (≈ 0.137 µM) |
| OC(Cn1cncn1)(Cn1cncn1)c1ccc(F)cc1F [FLUCONAZOLE] | 16 µg/mL (≈ 52.2 µM) | 1 µg/mL (≈ 3.27 µM) | 1 µg/mL (≈ 3.27 µM) | > 64 µg/mL | 0.25 µg/mL (≈ 0.816 µM) | 4 µg/mL (≈ 13.1 µM) | 4 µg/mL (≈ 13.1 µM) |
